Measurements taken from patent EP1938810A1, “AMELIORATING AGENT FOR METABOLIC SYNDROME” (FUJI CHEMICAL INDUSTRY CO., LTD., priority 2005, dated 2007).

Columns and labels:
[1] = system: metabolic syndrome model rats (SHR/Ndmer); assay: Blood glucose value after insulin injection (insulin resistance test); format: in vivo, rat; details: for blood glucose value after insulin infection: SHR/Ndmer rats, fasted, 120 minutes after 0.5U insulin
Experimental: Water only was given to rats ad lib from the day before the measurement not so as to give any feed to them. In the afternoon, 0.5 U of insulin was injected to them in an amount of 1 ml per 1 kg of the body weight, and the exsanguinations were conducted at given times to measure the glucose concentration in blood using a […] Π (a product of Horive Ltd). Female 5 weeks old, metabolic syndrome model rats ([…] product of Sankyo laboratories Co., Ltd.) were purchased and reared for about a week in a laboratory animals rearing room of a constant temperature (24 ± 1 °C), a constant humidity (54 ± 5 %) and a 12 hour light-dark cycle, and thereafter used for the experiment. Water and feed were provided ad lib to them. In the experiment, each group consists of 6 rats with proviso that 5 Wistar rats as normal group were used. Sample was orally administered to all rats in the afternoon. • 1) Control group: olive oil was administered in an amount of 1 ml per 1 kg of body weight of rat. • 2) Astaxanthin 5 mg/Kg administration group: astaxanthin was administered in an amount of 5 mg in admixture with I ml of olive oil per 1 kg of body weight of rat. • 3) Astaxanthin 50 mg/Kg administration group: astaxanthin was administered in an amount of 50 mg in admixture with I ml of olive oil per 1 kg of body weight of rat. • 4) Normal group: olive oil was administered in an amount of 1 ml per 1 kg of body weight of Wister rat

[2] = Change in body weight of rats under oral astaxanthin; format: in vivo, rat; details: for body weight: SHR/Ndmer rats
Experimental: (§1) Female 5 weeks old, metabolic syndrome model rats (SHR/Ndmer) (a product of Sankyo laboratories Co., Ltd.) were purchased and reared for about a week in a laboratory animals rearing room of a constant temperature (24 ± 1 °C), a constant humidity (54 ± 5 %) and a 12 hour light-dark cycle, and thereafter used for the experiment. Water and feed were provided ad lib to them. In the experiment, each group consists of 6 rats with proviso that 5 Wistar rats as normal group were used. Sample was orally administered to all rats in the afternoon.
(§2) • 1) Control group: olive oil was administered in an amount of 1 ml per 1 kg of body weight of rat. • 2) Astaxanthin 5 mg/Kg administration group: astaxanthin was administered in an amount of 5 mg in admixture with I ml of olive oil per 1 kg of body weight of rat. • 3) Astaxanthin 50 mg/Kg administration group: astaxanthin was administered in an amount of 50 mg in admixture with I ml of olive oil per 1 kg of body weight of rat. • 4) Normal group: olive oil was administered in an amount of 1 ml per 1 kg of body weight of Wister rat

[3] = system: metabolic syndrome model rats (SHR/Ndmer); assay: Measurement of blood pressure (tail artery, plethysmography); format: in vivo, rat; details: for diastolic blood pressure / systolic blood pressure: SHR/Ndmer rats
Experimental: Rats were broken in the apparatus since a week ago from the beginning of the experiment. They were bound slightly under a non-anesthetic and cuff with a built-in infrared sensor (THC-1, a product of Softron Co., Ltd. was applied to the tail artery to measure pressure (maximum, minimum and an average blood pressures) by a plethysmography. The measurement of blood pressure was conducted in the afternoon.
as §1, §2

[4] = background statement; cited from earlier work
[5] = system: metabolic syndrome model rats (SHR/Ndmer); assay: Fasting blood glucose value; format: in vivo, rat; details: overnight fasting
Experimental: Water only was given to rats ad lib from the day before the measurement not so as to give any feed to them. In the afternoon, 0.5 U of insulin was injected to them in an amount of 1 ml per 1 kg of the body weight, and the exsanguinations were conducted at given times to measure the glucose concentration in blood using a Antisence Π (a product of Horive Ltd).
as §1, §2

[6] = system: metabolic syndrome model rats (SHR/Ndmer); assay: Measurement of adiponectin in blood (ELISA); format: in vivo, rat; details: for blood adiponectin concentration: Ax 50 mg/kg oral, SHR/Ndmer rats
Experimental: I ml of blood was exsanguinated from a rat. After centrifugation, the obtained supernatant was subjected to ELISA kit for measuring adiponectin (Otsuka Pharmaceutical Inc.) to measure the adiponectin concentration in blood
as §1, §2

[7] = system: metabolic syndrome model rats (SHR/Ndmer); assay: Measurement of fat in blood (triglyceride G test); format: in vivo, rat; details: for blood fat: Ax 50 mg/kg oral, SHR/Ndmer rats
Experimental: The supernatant formed after centrifugation was subjected to the triglyceride G test using an enzyme (a product of Wako Pure Chemical Industries, Ltd.) to measure the fat concentration in blood.
as §1, §2

[8] = Ax 5 mg/kg oral, at 7 weeks old
[9] = Ax 5 mg/kg oral, at 9 weeks old
[10] = Ax 5 mg/kg oral, at 12 weeks old
[11] = Ax 5 mg/kg oral, at 17 weeks old
[12] = Ax 50 mg/kg oral, at 7 weeks old
[13] = Ax 50 mg/kg oral, at 9 weeks old
[14] = Ax 50 mg/kg oral, at 12 weeks old
[15] = Ax 50 mg/kg oral, at 17 weeks old
[16] = Ax 5 mg/kg oral, at 6 weeks old
[17] = Ax 50 mg/kg oral, at 6 weeks old
[18] = Ax 5 mg/kg oral, at 24 weeks old
[19] = Ax 50 mg/kg oral, at 24 weeks old

In the case of `CC1=C(/C=C/C(C)=C/C=C/C(C)=C/C=C/C=C(C)/C=C/C=C(C)/C=C/C2=C(C)C(=O)C(O)CC2(C)C)C(C)(C)CC(O)C1=O` (stereo not drawn) [Ax, 3,3'-dihydroxy-β, β-carotene-4, 4'-dione], the “blood glucose value after insulin infection” value [1, 8] is reported as 98.0 mg/dL, the “blood glucose value after insulin infection” value [1, 9] is reported as 85.6 mg/dL and the “blood glucose value after insulin infection” value [1, 10] is reported as 81.5 mg/dL. The “blood glucose value after insulin infection” value [1, 11] was 82.2 mg/dL, the “blood glucose value after insulin infection” value [1, 12] was 106.3 mg/dL and the “blood glucose value after insulin infection” value [1, 13] was 81.0 mg/dL. For the same compound, the “blood glucose value after insulin infection” value [1, 14] was 73.8 mg/dL, the “blood glucose value after insulin infection” value [1, 15] was 72.0 mg/dL and the “insulin resistance (in words)” value ([1]; administration of astaxanthin, summary of Table 5) was “significantly improved”. For the same compound, the body weight [2, 16] was 156 g, the body weight [2, 9] was 259 g and the body weight ([2]; Ax 5 mg/kg oral, at 13 weeks old) was 378 g. The body weight [2, 11] was 468 g, the body weight [2, 17] was 148 g and the body weight [2, 13] was 250 g. For the same compound, the body weight ([2]; Ax 50 mg/kg oral, at 13 weeks old) was 368 g, the body weight [2, 15] was 459 g and the “change in the body weight (in words)” value ([2]; administration of astaxanthin, summary of Table 1) was “no change in the body weight”. For the same compound, the diastolic blood pressure [3, 16] was 121 mmHG, the systolic blood pressure [3, 16] was 144 mmHG and the diastolic blood pressure [3, 9] was 130 mmHG. The systolic blood pressure [3, 9] was 161 mmHG, the diastolic blood pressure [3, 10] was 129 mmHG and the systolic blood pressure [3, 10] was 159 mmHG. For the same compound, the diastolic blood pressure [3, 18] was 155 mmHG, the systolic blood pressure [3, 18] was 185 mmHG and the diastolic blood pressure [3, 17] was 121 mmHG. The systolic blood pressure [3, 17] was 147 mmHG, the diastolic blood pressure [3, 13] was 128 mmHG and the systolic blood pressure [3, 13] was 160 mmHG. It also gave a diastolic blood pressure [3, 14] of 119 mmHG, a systolic blood pressure [3, 14] of 154 mmHG and a diastolic blood pressure [3, 19] of 156 mmHG. For the same compound, the systolic blood pressure [3, 19] was 189 mmHG, the “rise in blood pressure (in words)” value ([3]; administration of astaxanthin, summary of Tables 2 and 3) was “suppresses the rise in blood pressure” and the “antioxidative action relative to vitamin E (α-tocopherol)” value [4] was “about 1000 times”. For the same compound, the “antioxidative action relative to β-carotene” value [4] was “about 40 times”, the “fasting blood glucose value” [5, 8] was 132.0 mg/dL and the “fasting blood glucose value” [5, 9] was 98.0 mg/dL. For the same compound, the “fasting blood glucose value” [5, 10] was 88.3 mg/dL, the “fasting blood glucose value” [5, 11] was 108.8 mg/dL and the “fasting blood glucose value” [5, 12] was 135.0 mg/dL. For the same compound, the “fasting blood glucose value” [5, 13] was 109.0 mg/dL, the “fasting blood glucose value” [5, 14] was 89.3 mg/dL and the “fasting blood glucose value” [5, 15] was 111.8 mg/dL. For the same compound, the blood adiponectin concentration ([6]; at 7 weeks old) was 7.08 ± 0.43 µg/mL, the blood adiponectin concentration ([6]; at 12 weeks old) was 8.21 ± 0.14 µg/mL and the “adiponectin concentration in blood (in words)” value ([6]; administration of astaxanthin, summary of Table 7) was “increased in comparison with the control group”. For the same compound, the blood fat ([7]; at 7 weeks old) was 139.5 ± 15.9 mg/dL, the blood fat ([7]; at 12 weeks old) was 304.8 ± 9.9 mg/dL and the “increase in the blood fat with the passage of time (in words)” value ([7]; SHR/Ndmer, versus control group, summary of Table 6) was “suppresses the increase in the blood fat”.
